# PubChem BioAssay AID1645868 (Buhrlage Lab, Dana-Farber Cancer Institute and Novartis …, 2021)
# The source made the active and inactive calls.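 The calls were made as follows: active = maximal percent inhibition of the deubiquitinase OTUD3 of at least 30% across the tested doses; inactive = the rest.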
# Molecular target: OTU domain-containing protein 3 (Homo sapiens) (UniProt Q5T2D3)
# Experiment: Validation of screening hits, potency titration, in vitro enzymatic, OTU domain-containing protein 3 DUB inhibitors (AID 1645868)
# Details: purified OTUD3, ubiquitin-rhodamine cleavage fluorescence, 2 h
# Sequence of OTU domain-containing protein 3 (Homo sapiens) (Q5T2D3 whole entry, looked up, the tested form may be a part): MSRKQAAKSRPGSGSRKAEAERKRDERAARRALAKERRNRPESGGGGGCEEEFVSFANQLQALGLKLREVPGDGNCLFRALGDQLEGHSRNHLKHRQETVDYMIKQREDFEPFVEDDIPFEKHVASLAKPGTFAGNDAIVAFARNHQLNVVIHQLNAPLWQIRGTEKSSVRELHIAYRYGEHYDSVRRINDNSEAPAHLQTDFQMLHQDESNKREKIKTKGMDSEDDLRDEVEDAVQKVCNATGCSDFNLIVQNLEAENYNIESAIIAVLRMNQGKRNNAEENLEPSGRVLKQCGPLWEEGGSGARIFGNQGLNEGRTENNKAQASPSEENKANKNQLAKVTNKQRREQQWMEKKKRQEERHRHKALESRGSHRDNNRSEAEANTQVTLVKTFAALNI
row,Structure (SMILES),IC50
1,Cc1ccc(NC(=O)C2CCN(c3cncnc3N3CCCC3)CC2)cc1,> 50 µM (inactive)
2,Cc1cccc(C(=O)N2CCc3cc(-c4nc(NC(=O)CN5CCc6ccccc6C5)sc4C)ccc32)c1,> 50 µM (inactive)
3,O=c1[nH]c(C2CCN(S(=O)(=O)c3ccc(S(=O)(=O)NC4CCCCC4)cc3)CC2)nc2c1nnn2Cc1c(F)cccc1Cl,27.9 µM
4,Cc1ccc(/C=C/C(=O)Nc2ccc3c(c2)OCCO3)cc1,> 50 µM (inactive)
5,COc1ccc(CNC(=O)CN2C(=O)C(C)=C(c3ccc(C)cc3)S2(=O)=O)cc1,> 50 µM (inactive)
6,CC(C)c1ccc(C(C(=O)NC2CCCCC2)N(C(=O)c2cnccn2)c2cccc(F)c2)cc1 (stereo unspecified),47.6 µM
7,COc1ccc(CNC(=O)CN2C(=O)CC(c3ccccc3)=Nc3ccccc32)cc1,16.4 µM
8,O=C(CN1C(=O)COc2ccc(Cl)cc21)Nc1cccc2ncccc12,> 50 µM (inactive)
9,CC(C)(C)c1ccc(C(=O)Nc2ccc(Oc3cccnc3)nc2)cc1,> 50 µM (inactive)
10,CC1CCCCN1CCCNC(=O)c1ccc(N2CCc3ccccc32)s1 (stereo unspecified),> 50 µM (inactive)
11,COc1ccc(NC(=O)CN2CCN(c3ccc(C(C)=O)cc3)CC2)cc1S(=O)(=O)N1CCCCC1,> 50 µM (inactive)
12,O=C(Nc1cccn(Cc2c(Cl)cccc2Cl)c1=O)c1ccccc1[N+](=O)[O-],> 50 µM (inactive)
13,Cc1nnc(-c2nnc(NCc3ccc(Cl)cc3)c3ccccc23)o1,> 50 µM (inactive)
14,Cc1ccn(-c2ccc(NC(=O)c3ccccc3Sc3ccccc3C#N)cc2)n1,44.5 µM
15,COc1ccc(CN2CCCC23CCCN(C(=O)CCc2cccnc2)C3)cc1F (stereo unspecified),49.5 µM
16,O=C(NCc1ccc2c(c1)OCO2)c1nc(-c2ccccc2)n(-c2ccccc2)n1,> 50 µM (inactive)
17,Cc1ccc(-n2c(=O)c3ccccc3n(Cc3c(F)cccc3Cl)c2=O)cc1,> 50 µM (inactive)
18,CCOc1cc(C2C3=C(CC(C)(C)CC3=O)Nc3onc(C)c32)ccc1O (stereo unspecified),> 50 µM (inactive)
19,Cn1cc(-c2noc(Cc3cccc(C(F)(F)F)c3)n2)ccc1=O,> 50 µM (inactive)
20,Cc1[nH]nc(NC(=O)C2COc3ccccc3O2)c1-c1ccccc1 (stereo unspecified),26.6 µM
21,CCN(CC)C(=O)c1sc(NC(=O)/C=C/c2c(F)cccc2Cl)c(C#N)c1C,> 50 µM (inactive)
22,N#Cc1ccc(NC(=O)COC(=O)c2ccc3ccccc3n2)cc1,> 50 µM (inactive)
23,N#Cc1ccc(NC(=O)Nc2cccn(Cc3ccccc3Br)c2=O)cc1,> 50 µM (inactive)
24,COc1cccc(CN2CCc3nc4nc(C)ccc4cc3C2)c1,> 50 µM (inactive)

row,Structure (SMILES),IC50
1,Cc1ccc(C(C)C)cc1OCCOCCN1CCNCC1,> 50 µM (inactive)
2,COc1ccccc1CNC(=O)C1CCCN(c2nc3ccsc3c(=O)s2)C1 (stereo unspecified),> 50 µM (inactive)
3,O=C(CN(Cc1ccc(Cl)cc1)S(=O)(=O)c1ccc(Cl)cc1)N1CCOCC1,> 50 µM (inactive)
4,Cc1nc(C(=O)Nc2cccc(Cl)c2Cl)nn1-c1cc(Cl)cc(Cl)c1,> 50 µM (inactive)
5,COc1ccc(NC(=O)c2ccnc(Nc3ccc(OC)cc3)c2)cc1,> 50 µM (inactive)
6,O=C(Cn1c(=O)n(Cc2ccc3c(c2)OCO3)c(=O)c2ncccc21)c1ccccc1,> 50 µM (inactive)
7,Cc1ccc(-c2csc(-n3ncc(C(=O)N4CCN(C(=O)Nc5cccc6ccccc56)C(C)C4)c3C(C)C)n2)cc1 (stereo unspecified),> 50 µM (inactive)
8,CS(=O)(=O)N1CCc2cc(C(=O)Nc3ccc(Cc4ccncc4)cc3)ccc21,> 50 µM (inactive)
9,COCCn1ccc2nc(C)c(C(=O)Nc3ccc4c(c3)OCCO4)cc2c1=O,> 50 µM (inactive)
10,Cc1ccc2nc(-c3cccc(-c4nc5ccc(C)cc5[nH]4)n3)[nH]c2c1,> 50 µM (inactive)
11,CCOC(=O)c1sc2c(c1C)c(=O)n(Cc1ccccc1)c(=O)n2CC(N)=O,> 50 µM (inactive)
12,Cc1ccc(C(=O)Nc2cc3c4c(c2)CC(=O)N4CCC3)cc1,> 50 µM (inactive)
13,Cc1ccc(CN2C(=O)c3cc4ccccc4n3CC2(C)C(=O)NCc2ccccc2)o1 (stereo unspecified),> 50 µM (inactive)
14,O=C(Cn1nnc(-c2ccc(F)cc2)n1)NCCc1ccccc1,> 50 µM (inactive)
15,O=c1ccc(-c2noc(Cc3c(F)cccc3Cl)n2)c[nH]1,> 50 µM (inactive)
16,CCOC(=O)c1cnc(C(F)(F)F)nc1Sc1n[nH]c(-c2cccs2)n1,> 50 µM (inactive)
17,O=S(=O)(Nc1ccc(O)cc1)c1ccc2oc3ccc(S(=O)(=O)Nc4ccc(O)cc4)cc3c2c1,46.1 µM
18,O=C(Nc1ncc2c(n1)-c1ccccc1CC2)C1CC1,35.9 µM
19,COC(=O)COc1ccc(/C=N/NC(=O)c2ccc(CN3CCc4ccccc4C3)cc2)cc1,43.8 µM
20,CCOc1ccccc1-c1nc(-c2nnn(Cc3ccccc3)c2C)no1,> 50 µM (inactive)
21,Cc1cc(C)n(-c2cccc(C(=O)Nc3ccc4c(c3)CCN4S(C)(=O)=O)c2)n1,> 50 µM (inactive)
22,CC(C)NC(=O)CN1C(=O)CC(C)Sc2ccc(S(=O)(=O)N3CCCCC3)cc21 (stereo unspecified),31.7 µM
23,CC(C)c1nc2sc3c(N(CCO)CCO)ncnc3c2c2c1COC(C)(C)C2,> 50 µM (inactive)
24,CCC(=O)Nc1ccc2c(c1)nc(CSc1nccc(C)n1)n2CC,> 50 µM (inactive)

row,Structure (SMILES),IC50
1,COc1ccc(COC(=O)C2=C(C)NC(=O)CC2c2cccc([N+](=O)[O-])c2)cc1 (stereo unspecified),> 50 µM (inactive)
2,Cc1cc(C2CC(=O)Nc3c2c(C)nn3-c2nc3ccccc3[nH]2)c(C)s1 (stereo unspecified),> 50 µM (inactive)
3,Cc1cc(=O)oc2cc(OCC(=O)Nc3cc(Cl)ccc3N3CCOCC3)ccc12,> 50 µM (inactive)
4,O=c1[nH]c(-c2ccccn2)nc2c1CCN(Cc1cnn(-c3ccccc3)c1)C2,> 50 µM (inactive)
5,COc1cc(OC)cc(-n2c(=O)c3sccc3n(CC(=O)Nc3ccc(C)cc3)c2=O)c1,21.1 µM
6,CCN(c1ccccc1)S(=O)(=O)c1ccc(C(=O)Nc2nc3ccc(F)cc3s2)cc1,> 50 µM (inactive)
7,Cc1cc(C)n2nc(CNc3cccc(Cl)c3)nc2n1,> 50 µM (inactive)
8,O=C(/C=C/c1ccc2c(c1)OCO2)Nc1nc2c(s1)COCC2,> 50 µM (inactive)
9,N#Cc1c(SCCO)nc(N2CCCC2)c2c1CCCC2,> 50 µM (inactive)
10,CC(=O)Nc1ccc(-n2cnc(C(=O)NC(C)c3ccccc3)c2)nc1 (stereo unspecified),> 50 µM (inactive)
11,COC(=O)c1ccc(Cn2cnc3ccc(F)cc3c2=O)o1,> 50 µM (inactive)
12,CC1Oc2cc3c(-c4c(O)cc(O)c5c(O)c6c(cc45)OC(C)C(C)C6=O)c(O)cc(O)c3c(O)c2C(=O)C1C (stereo unspecified),2.47 µM
13,O=c1c2ccccc2oc2nc(-c3cccs3)n(-c3ccccc3)c(=O)c12,3.6 µM
14,Cc1cccc(NC(=O)c2ccn(COc3ccc(F)cc3F)n2)c1C,> 50 µM (inactive)
15,Cc1ccc(-c2nc(Cn3cnc4ccccc4c3=O)cs2)cc1,18.9 µM
16,CCC(C)c1ccc(-c2csc(Cn3c(CN4CCN(C)CC4)nc4ccccc4c3=O)n2)cc1 (stereo unspecified),31.8 µM
17,O=C(NCc1ccccc1Cl)c1ccc(-c2nnc(-c3ccccc3)o2)cc1,5.57 µM
18,CCC(=O)N1c2ccccc2NC2=C(C(=O)CC(c3ccccc3OCc3ccccc3)C2)C1c1ccccc1 (stereo unspecified),12.2 µM
19,CC12c3ccc4c(c3C(=O)c3occ(c31)C(=O)CC2O)CCC4=O (stereo unspecified),> 50 µM (inactive)
20,CC(C)(C)c1ccc(-c2nnc3n2-c2ccccc2SC3)cc1,> 50 µM (inactive)
21,CCC(CC)n1[nH]c(=O)c2c1NC(=O)CSC2c1ccc2c(c1)OCO2 (stereo unspecified),19.3 µM
22,CCN(CC)C(=O)CN1CCCC(c2ncncc2-c2cc(C)no2)C1 (stereo unspecified),> 50 µM (inactive)
23,COc1ccc(CCNC(=O)COc2ncnc3oc(C)c(C)c23)cc1OC,> 50 µM (inactive)
24,O=C(Nc1cccc2ccccc12)C1CCCN(S(=O)(=O)Cc2ccccc2)C1 (stereo unspecified),40.5 µM

row,Structure (SMILES),IC50
1,CCOc1ccc(-c2nc(C#N)c(N3CCN(C(=O)c4ccccc4C)CC3)o2)cc1,43.4 µM
2,Cc1noc(-c2cccn(Cc3cccc(C(F)(F)F)c3)c2=O)n1,> 50 µM (inactive)
3,CC(C)=CCCC1(C)OC2=C(C(=O)c3cc(O)cc(O)c3C2=O)[C@H]2C=C(C)CC[C@H]21 (stereo partly specified),> 50 µM (inactive)
4,O=C(Cn1c(=O)n(CCCC(=O)N2CC=C(c3ccccc3)CC2)c(=O)c2ccccc21)NCCC1=CCCCC1,> 50 µM (inactive)
5,Cc1cccc(C(=O)N2CCc3cc(-c4nc(NC(=O)CNc5ccccc5)sc4C)ccc32)c1,> 50 µM (inactive)
6,O=C(Nc1cccc(C(F)(F)F)c1)N1CCCn2c(nc3ccccc32)C1,37.6 µM
7,Cc1ccccc1NC(=O)Cn1cncc(-c2nc(-c3ccccc3)cs2)c1=O,> 50 µM (inactive)
8,CCC(=O)Nc1cccnc1-c1ccc(C(=O)Nc2cccc(OC)c2)cc1,> 50 µM (inactive)
9,COc1cc(OC)c2c(c1)C(=O)C1=C(COC(C)(O)C1)C2=O (stereo unspecified),> 50 µM (inactive)
10,Cc1ccc2nnc(-c3ccccc3)c(C(=O)N3CCN(c4ccccn4)CC3)c2c1,> 50 µM (inactive)
11,O=C(Nc1ccc2c(c1)OCO2)C1CCN(Cc2nc3ccccc3s2)CC1,> 50 µM (inactive)
12,Cc1ccccc1-c1nnc(-c2ccc(C(=O)NCc3ccccc3F)cc2)o1,31.6 µM
13,Cn1c(CCN2CCCC2)nc2cc(NS(=O)(=O)c3ccccc3)ccc21,> 50 µM (inactive)
14,CC(=O)Nc1ccc(S(=O)(=O)NCc2ccc(C(=O)NCc3ccc(C)cc3)cc2)cc1,25.2 µM
15,Cc1ccc(NC(=O)c2ccc(N3CCOCC3)nn2)cc1F,> 50 µM (inactive)
16,CC1(C)CC(=O)C2=C(C1)Nc1ccccc1N(C(=O)C(F)(F)F)C2c1cccs1 (stereo unspecified),> 50 µM (inactive)
17,COc1ccc(Cl)c(NC(=O)C2CC(=O)Nc3cc(-c4ccccc4)nn32)c1 (stereo unspecified),24.9 µM
18,Cc1ccc(-n2cc(C(=O)NCc3cccnc3)nn2)cc1C,26.5 µM
19,Cc1sc2ncnc(OCc3ccc(F)cc3Cl)c2c1C,> 50 µM (inactive)
20,COc1ccc(C(=O)Nc2ccccc2C(=O)NCc2ccccc2)cc1,> 50 µM (inactive)
21,Cc1cccc(C(=O)Nc2cccc(SC(C(=O)Nc3ccc(O)c(C(=O)O)c3)c3ccccc3)c2)c1 (stereo unspecified),24.1 µM
22,Cc1ccc(Cn2nnc(-c3ccccc3Cl)n2)cc1,> 50 µM (inactive)
23,O=C(/C=C/c1ccco1)c1cccc([N+](=O)[O-])c1,23.2 µM
24,Cc1nnc(NCc2cccnc2)c2c1nnn2Cc1ccccc1Cl,> 50 µM (inactive)
